How the values were obtained:
[1] = patients carrying the G551D mutation; ref Ramsey et al., 2011; cited from earlier work
F508del CFTR [2] = molecular target: T1, F508del CFTR (Homo sapiens, UniProt P13569, DEL508-508); assay: Cell surface expression assay, HRP-tagged F508del CFTR in CFBe41o- cells; type: cell-based; design: expressed in transfected cells; settings: 24 h co-incubation with 10 μM VX809, concentration range of potentiator
Method: CFBE41o^- TetON cells expressing HRP tagged F508del-CFTR ([Veit et al., 2012]) were seeded at a density of 4,000 cells per well in white 384-well plates (Greiner). Medium containing 500 ng/ml doxycycline was used to induce expression of the F508del-CFTR–HRP construct. After 3 days, cells were treated with corrector and/or potentiator compounds and transferred to an incubator at 33°C. On day 4, cells were washed 5 times with PBS containing Ca^2+ and Mg^2+ using a Bio-Tek plate washer and incubated with a chemiluminescent HRP substrate (SuperSignal West Pico Chemiluminescent Substrate, Thermo Scientific) for 15 min. Chemiluminescence was measured using an Envision plate reader (Perkin Elmer).

F508del CFTR [3] = molecular target: T1, F508del CFTR; assay: YFP halide assay, CFBe41o- cells, low temperature rescued F508del CFTR; type: cell-based; settings: 27°C 24 h, 10 μM forskolin, read-out: EC50, potentiation of low temperature rescued F508del CFTR
Method: CFBe41o- cells were plated in black 384-well microplates at a density of 1,500 cells per well. After 24 h, cells were transduced with adenoviruses containing F508del CFTR and YFP (H148Q/I152L/) F47L using a multiplicity of infection of 30 infectious units per cell for each adenovirus. The next day, for the low temperature corrected assay, cells were incubated at 27°C for 24 h, for the chemically corrected assay cells were treated with corrector for 24 h at 37°C. On the day of analysis, cells were washed five times with Dulbecco’s Phosphate-Buffered Saline (DPBS) containing Ca^2+ and Mg^2+ (Life Technologies) using a Microplate Washer (BioTek). Then, cells were treated with 10 μM forskolin and the desired concentration of potentiator in a volume of 30 μl and the plates were incubated at room temperature for 10 min, a timepoint optimized in previous experiments showing good window (positive control/negative control > 2) and signal to background ratio. The YFP fluorescence was recorded for 2 min, starting immediately before addition of 30 μl NaI buffer (375 mM NaI, 7.5 mM KI, 1.76 mM KH2PO4, 10.1 mM Na2HPO4, 13.75 mM glucose) to the wells, using a FDSS/μCell (Hamamatsu) fluorescence reader with a 480 nm excitation filter and a 540 nm emission filter. The capacity of potentiators to increase CFTR channel function was expressed as 1-[fluorescence 36 s after NaI addition (F)/fluorescence before NaI addition (F0)], a timepoint optimized previously, resulting in an optimal signal window. Data was normalized using the formula: normalized response = 100^∗ (absolute response – negative control response)/(VX770 response – negative response) as such, VX770 response corresponds to 100. For Dose-response experiments, data was fitted using a 4 parameter hill function of the form Response = Bottom + (Top-Bottom)/(1 + 10ˆ((LogEC50-concentration)^∗HillSlope)) to determine EC50 values.

F508del CFTR [4] = molecular target: T1, F508del CFTR; assay: TECC on corrector rescued F508del/F508del primary HBE cells; type: cell-based; design: endogenous in cells; host or cells: primary human bronchial epithelial cells, F508del/F508del donors (McGill University; University of North Carolina)
Method: Bronchial epithelial cells isolated from transplanted lungs from wild-type (WT), CF patients homozygous for the F508del mutation or heterozygous G551D/F508del or R334W/F508del patients, were obtained from McGill University (Montreal, Canada) and University of North Carolina (Chapel Hill, NC, United States). Cells were isolated from lungs obtained from donors undergoing a planned transplantation. These primary cells were cultured directly on type IV collagen-coated polycarbonate Transwell supports with a diameter of 6.5 mm and pore size of 0.4 μm (Costar, #3397) for 18–25 days in air liquid (ali) interface essentially as previously described ([Fulcher et al., 2005]). Trans-epithelial clamp circuit (TECC) recordings were performed using the TECC instrument developed and sold by EP Design (Bertem, Belgium). During the recording, the epithelial cells were bathed in a NaCl-Ringer solution (120 mM NaCl, 20 mM HEPES, 1.2 mM CaCl2, 1.2 mM MgCl2, 0.8 mM KH2PO4, 0.8 mM K2HPO4, 5 mM glucose, pH 7.4) on both the basolateral (640 μl) and the apical side (160 μl) and kept at 37°C. Apical amiloride was used to inhibit the endogenous ENaC currents (100 μM) while forskolin (10 μM) was applied on both the apical and basolateral sides to stimulate CFTR. All triggers and compounds used during the experiment were first dissolved in DMSO to a 1000 X concentrated solution, just prior to treatment a 10 X stock was prepared in the NaCl-Ringer solution which was used for addition of the correct concentration of trigger and or compound during the experiment. When using the F508del CFTR mutant, VX809 (3 μM) or GLPG2222 (1 μM) corrector was added on the basolateral side for 24 h to partially rescue F508del CFTR before adding the potentiator. For chronic experiments, the potentiator range was also added to the cells for 24 h and reapplied in the NaCl-ringer buffer prior to the electrophysiological recording. Measurements were done during a 20 min timeframe with recordings every 2 min. The transepithelial potential (PD) and transepithelial resistance (Rt) were measured in an open circuit and transformed to Ieq using Ohm’s law. The increase in Ieq (Δ Ieq) was used as a measure for the increased CFTR activity. EC50 values were generated by measuring impact of different concentrations of compound on Ieq in primary cells. For this purpose each transwell was treated with a different compound concentration. CFTRInh-172 was used at 10 μM to assess the specificity of the response. […] Data was fitted using a 3 parameter hill function of the form Response = Bottom + (Top-Bottom)/(1 + 10ˆ((LogEC50-concentration))) to determine EC50 values.

G551D CFTR = molecular target: T2, G551D CFTR (Homo sapiens, UniProt P13569, G551D); settings: ref Jih and Hwang (2013); cited from earlier work
T2 construct: expressed in transfected cells; host or cells: HEK293, transient (jetPEI)
T2 sequence (P13569 whole entry G551D): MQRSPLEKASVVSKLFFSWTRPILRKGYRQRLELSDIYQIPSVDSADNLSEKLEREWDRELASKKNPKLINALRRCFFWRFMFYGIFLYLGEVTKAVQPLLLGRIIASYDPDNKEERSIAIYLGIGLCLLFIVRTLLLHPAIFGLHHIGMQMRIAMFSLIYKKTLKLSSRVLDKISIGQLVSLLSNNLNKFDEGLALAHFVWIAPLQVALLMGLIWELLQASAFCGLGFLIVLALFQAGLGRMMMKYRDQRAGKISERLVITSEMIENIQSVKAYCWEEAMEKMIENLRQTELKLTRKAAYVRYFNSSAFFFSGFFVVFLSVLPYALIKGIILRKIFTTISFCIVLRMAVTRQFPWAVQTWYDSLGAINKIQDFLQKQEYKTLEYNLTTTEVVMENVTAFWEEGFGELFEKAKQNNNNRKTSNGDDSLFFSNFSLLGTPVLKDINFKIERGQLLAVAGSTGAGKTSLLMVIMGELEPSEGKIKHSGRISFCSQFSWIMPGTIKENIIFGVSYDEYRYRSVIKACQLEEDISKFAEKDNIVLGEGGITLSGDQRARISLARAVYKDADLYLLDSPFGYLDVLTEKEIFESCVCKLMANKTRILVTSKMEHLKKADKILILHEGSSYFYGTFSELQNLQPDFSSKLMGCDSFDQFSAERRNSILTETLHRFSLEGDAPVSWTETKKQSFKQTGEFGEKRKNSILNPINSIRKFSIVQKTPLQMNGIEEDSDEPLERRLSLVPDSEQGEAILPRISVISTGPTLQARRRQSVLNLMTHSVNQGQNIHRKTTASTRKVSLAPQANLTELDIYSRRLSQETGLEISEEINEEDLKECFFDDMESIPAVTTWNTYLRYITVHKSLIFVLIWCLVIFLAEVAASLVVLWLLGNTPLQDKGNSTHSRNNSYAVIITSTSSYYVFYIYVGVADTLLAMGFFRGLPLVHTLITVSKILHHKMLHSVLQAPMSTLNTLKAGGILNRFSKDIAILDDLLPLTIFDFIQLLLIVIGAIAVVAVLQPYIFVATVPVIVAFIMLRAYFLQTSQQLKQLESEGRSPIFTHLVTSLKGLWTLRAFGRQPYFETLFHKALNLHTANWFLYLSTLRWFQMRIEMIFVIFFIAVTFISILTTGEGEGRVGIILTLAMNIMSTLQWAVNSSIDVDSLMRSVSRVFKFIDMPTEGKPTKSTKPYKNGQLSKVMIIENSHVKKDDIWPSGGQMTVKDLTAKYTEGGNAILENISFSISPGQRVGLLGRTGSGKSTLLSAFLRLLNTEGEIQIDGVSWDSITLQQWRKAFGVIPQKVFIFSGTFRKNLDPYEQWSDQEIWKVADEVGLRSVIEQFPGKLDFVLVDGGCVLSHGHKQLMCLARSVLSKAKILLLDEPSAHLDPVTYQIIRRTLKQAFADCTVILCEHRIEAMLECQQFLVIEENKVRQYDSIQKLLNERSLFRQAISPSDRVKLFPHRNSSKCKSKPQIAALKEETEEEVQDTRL

T1 sequence (P13569 with tags, fused parts or gaps DEL508-508): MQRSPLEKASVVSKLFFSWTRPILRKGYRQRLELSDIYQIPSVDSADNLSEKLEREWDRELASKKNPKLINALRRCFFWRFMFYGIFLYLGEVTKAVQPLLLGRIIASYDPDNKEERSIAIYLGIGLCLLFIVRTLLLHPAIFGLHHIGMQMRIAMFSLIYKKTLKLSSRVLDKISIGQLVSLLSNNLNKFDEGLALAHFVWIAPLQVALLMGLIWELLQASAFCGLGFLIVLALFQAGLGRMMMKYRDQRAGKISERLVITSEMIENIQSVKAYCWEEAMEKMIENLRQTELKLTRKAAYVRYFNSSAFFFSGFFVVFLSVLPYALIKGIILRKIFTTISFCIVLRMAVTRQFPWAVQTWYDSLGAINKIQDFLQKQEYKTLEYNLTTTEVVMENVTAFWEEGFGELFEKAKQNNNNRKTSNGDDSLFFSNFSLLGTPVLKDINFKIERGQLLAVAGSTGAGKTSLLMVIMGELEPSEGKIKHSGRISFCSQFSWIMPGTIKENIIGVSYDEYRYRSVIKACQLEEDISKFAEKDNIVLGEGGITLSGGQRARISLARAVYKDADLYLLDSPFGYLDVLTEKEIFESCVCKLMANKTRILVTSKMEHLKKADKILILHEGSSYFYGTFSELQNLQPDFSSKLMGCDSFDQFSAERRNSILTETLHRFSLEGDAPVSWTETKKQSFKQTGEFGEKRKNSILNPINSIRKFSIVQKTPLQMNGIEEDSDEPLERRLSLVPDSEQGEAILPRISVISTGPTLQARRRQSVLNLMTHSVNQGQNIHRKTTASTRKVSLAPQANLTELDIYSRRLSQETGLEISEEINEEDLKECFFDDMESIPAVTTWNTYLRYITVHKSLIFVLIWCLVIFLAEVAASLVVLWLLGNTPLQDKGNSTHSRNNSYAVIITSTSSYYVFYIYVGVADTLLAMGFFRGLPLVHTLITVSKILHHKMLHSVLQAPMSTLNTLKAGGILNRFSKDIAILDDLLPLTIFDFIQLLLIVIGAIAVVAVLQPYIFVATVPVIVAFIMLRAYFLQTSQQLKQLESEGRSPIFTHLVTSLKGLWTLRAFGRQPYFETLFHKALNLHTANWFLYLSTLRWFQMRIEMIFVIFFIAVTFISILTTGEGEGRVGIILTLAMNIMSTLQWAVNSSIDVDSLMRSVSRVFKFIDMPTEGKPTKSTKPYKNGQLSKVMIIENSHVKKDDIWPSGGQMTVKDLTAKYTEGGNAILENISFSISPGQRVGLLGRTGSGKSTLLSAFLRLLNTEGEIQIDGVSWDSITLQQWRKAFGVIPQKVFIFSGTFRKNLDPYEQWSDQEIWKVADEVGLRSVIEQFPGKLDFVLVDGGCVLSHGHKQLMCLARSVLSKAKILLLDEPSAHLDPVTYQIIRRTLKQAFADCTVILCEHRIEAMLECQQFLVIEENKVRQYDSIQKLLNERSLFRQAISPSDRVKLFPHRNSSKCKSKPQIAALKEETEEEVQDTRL

CC(C)(C)c1cc(C(C)(C)C)c(NC(=O)c2c[nH]c3ccccc3c2=O)cc1O [VX770, N -(2,4-Di-tert-butyl-5-hydroxyphenyl)-4-oxo-1,4-dihydroquinoline-3-carboxamide, reference compound]
Improvement of lung function [1]: 10.6% | Effect on cell surface expression of VX809 rescued F508del CFTR (F508del CFTR [2]): reduces the level of cell surface expressed F508del CFTR at all concentrations tested | EC50 (F508del CFTR [3]): 126 ± 10.9 nM | Decrease in corrected F508del CFTR channel activity in chronic versus acute setting (F508del CFTR [4]; 10 μM potentiator, corrected F508del/F508del HBE, 24 h): decrease in F508del CFTR channel activity | EC50 (F508del CFTR [4]; VX809 3 μM 24 h, acute potentiator addition, 10 μM forskolin, read-out: EC50 on VX809 corrected F508del/F508del HBEs (TECC)): 80.7 ± 21.7 nM | Increase of macroscopic G551D CFTR current (G551D CFTR): 10 fold

From article PMC6212544, “Identification and Characterization of Novel CFTR Potentiators” (Frontiers in Pharmacology, 2018)
